Source: patent US9980940B2, “Composition for the treatment of neuropathies and/or neuropathic pain” (Kolinpharma S.p.A., priority 2014, dated 2018)
Entries after “also recorded” stand apart in the source; their conditions may differ. Like-named read-outs stand apart in the source and are kept apart here.

Key:
[1] = test system: ROS produced by the THP-1 cells; experiment: ROS assay (H2DCF-DA, flow cytometry), Example 2; type: cell-based, human; settings: 24 h treatment then H2O2 100 μM 2 h; concentrations indicated in Table 7
Method: The antioxidant activity of the individual components and synergy between them was evaluated as efficiency of neutralization of the ROS produced by the THP-1 cells after application of an oxidizing agent: hydrogen peroxide (H2O2) at a concentration of 100 μM. The ROS were measured by the method described in Boulton S., Anderson A., Swalwell J., et al., 2011 Implications of using the fluorescent probes, dihydrorhodamine 123 and 2′,7′-dichlorodihydrofluorescein diacetate, for the detection of UV-A induced reactive oxygen species. […] The DCF produced is then quantified by reading with a flow cytometer and is proportional to the quantity of ROS present in the sample under examination. […]
After removal of the H2DCF-DA solution, the cells were washed, collected and the fluorescence of the DCF was measured by analysis with a Coulter Epics XL flow cytofluorimeter. At least ten thousand cells were analysed for each sample and the mean fluorescence intensity was quantified by the XL2 software of the instrument.
The parameter considered is MFI, mean fluorescence intensity, i.e. the geometric mean of the fluorescence intensity of the cells in which H2DCF-DA has been transformed into the fluorescein-treated DCF form, which is proportional to the amount of ROS per sample. […]

[2] = Solubility / dissolution of Xinepa and its ingredients
IL-1β [3] = experiment: ELISA of IL-1β after LPS, Example 3; type: cell-based, human
Method: (§1) Possible anti-inflammatory activity of the individual components and synergy between them in THP-1 cells was evaluated after 24 hours of treatment and stimulation with a known pro-inflammatory agent (LPS), measuring expression of IL-1β and TNFα using an ELISA kit (Thermo Fisher Scientific, Inc.).
(§2) As preparation for the test, the THP-1 cells were sown uniformly in a 96-well plate at a density of 5×10^4 cells/well and treated with the maximum concentrations found to be non-cytotoxic in the MTT assay; untreated cells were used as negative control. Treatment was carried out at 37° C. at 5% CO2 for 20 h; then the sample was stimulated with LPS (component of the bacterial outer membrane, considered to be an inflammatory agent) for 4 hours.
(§3) At the end of the treatment, the supernatants were collected and used for coating a pretreated ELISA plate, supplied with the kit.
(§4) For analysis of the expression of both markers under examination (IL-1β and TNFα), a special kit is used that is based on the “sandwich” ELISA system in which a 96-well plate is coated with a monoclonal antibody specific to the particular cytokine.
The standards, prepared on the basis of the instructions in the protocol and used for constructing the calibration curve, and the samples are added to the wells and the cytokine of interest binds the capture antibody immobilized on the bottom of the well. Next, the biotinylated anti-cytokine antibody is added to the wells so that the biotinylated antibody-antigen-antibody “sandwich” is formed. […] Addition of a solution of sulphuric acid turns the colour of the solution from blue to yellow, blocking the reaction and allowing accurate reading of the absorbance of the samples at 450 nm.
The absorbance was then read at 450 and 550 nm using a microplate reader (Tecan Sunrise). The values obtained from the reading at 550 nm were subtracted from those at 450 nm to correct the optical imperfections of the microplate. […]

TNFα [4] = experiment: ELISA of TNFα after LPS, Example 3; type: cell-based, human
Method: as §1, §2, §3, §4
The standards, prepared on the basis of the instructions in the protocol and used for constructing the calibration curve, and the samples are added to the wells and the cytokine of interest binds the capture antibody immobilized on the bottom of the well. […] Addition of a solution of sulphuric acid turns the colour of the solution from blue to yellow, blocking the reaction and allowing accurate reading of the absorbance of the samples at 450 nm.
The absorbance was then read at 450 and 550 nm using a microplate reader (Tecan Sunrise). The values obtained from the reading at 550 nm were subtracted from those at 450 nm to correct the optical imperfections of the microplate.
The possible anti-inflammatory action of the individual components of Xinepa and the possible synergy were evaluated by measuring the levels of TNFα following stimulation with LPS. […]

THP-1 human monocytes = settings: 24 h
Source text: (§5) The MTT assay is a colorimetric cytotoxicity assay that makes it possible to test cellular proliferation and vitality based on the efficiency of mitochondrial respiration. MTT (3-(4,5-dimethylthiazol-2-yl)-2,5-diphenyl tetrazolium bromide) is a tetrazolium salt that is reduced by the highly reducing environment in the mitochondria of living cells by the action of mitochondrial dehydrogenase. Reduction of MTT causes formation of crystals of formazan that give the characteristic purple coloration to the mitochondria of living cells. […] Thus, although it is a test that evaluates cellular respiration, the MTT assay is considered to be an excellent method for determining cellular vitality.
(§6) As preparation for the test, the cells were sown uniformly in 96-well plates at a density of 5×10^4 cells per well and incubated at 37° C., with 5% CO2, and simultaneously, the cells were treated following serial dilutions (1:2) in order to identify the maximum non-cytotoxic concentration for each component.
(§7) The treatment was carried out for 24 hours. At the end, after brief washing in PBS, 20 μl of MTT (stock 5 mg/ml) in PBS was added to the THP-1 cells for 2 hours at 37° C. At the end of the incubation time, after removal from the medium and washing in PBS, 100 μl of DMSO was added for solubilization of the formazan crystals. Spectrophotometric reading was performed with a microplate reader (Tecan Sunrise) at a wavelength of 570 nm. The cellular vitality was calculated by measuring the optical density of the concentrations tested relative to the control (untreated cells).
as §5, with “leads to” for “causes”, “impart” for “give”, “regarded as” for “considered to be”
as §6, with “CO2” for “CO2,”, “at the same time” for “simultaneously,”, “with” for “following”
as §7, with “to dissolve” for “for solubilization of”

THP-1 cell line = settings: curcumin (Sigma, commercial); Hsu et al. 2008; cited from earlier work
IL-1β [5] = experiment: ELISA assay (Assay 1a), release of IL-1β; type: cell-based, human; settings: positive controls; LPS 1 μg/ml 2 h
THP-1 cells = experiment: MTT assay (Assay 0), cellular vitality; type: cell-based, human; settings: positive controls at 100 μM
Method: The cells were kept in an incubator at 37° C. and 5% CO2 and sown every 3-4 days at a density of about 5×10^5 cells/ml.
This colorimetric assay is based on the transformation of tetrazolium salt MTT (yellow) to formazan (violet), by the reductase succinate-tetrazolium system, which belongs to the respiratory chain of the mitochondria and is only active in metabolically active cells. Briefly, the cells grown in a 96-well plate were incubated with the solution of MTT for 4 hours. […] The absorbance measured correlates directly with the number of live cells.
To exclude a possible toxic effect attributable to the incubation protocol selected, cellular vitality was quantified by the MTT assay.

TNFα [6] = experiment: ELISA assay (Assay 1a), release of TNFα; type: cell-based, human; settings: positive controls; LPS 1 μg/ml 2 h
[7] = test system: reactive oxygen species (ROS) in THP-1 cells; experiment: Intracellular levels of ROS (Assay 2), CellROX Deep Red; type: cell-based, human; settings: positive control; 100 mM H2O2 2 h; not significantly different from its vehicle control
Method: The operating principle of the probe is based on the fact that it is not fluorescent in the reduced state, whereas following oxidation it develops a fluorescent signal with excitation peak at 640 nm and emission peak at 665 nm. Briefly, at the end of the period of stimulation with H2O2, the cells were incubated with CellROX® Deep Red Reagent at a final concentration of 5 μM in the medium at 37° C. for 30 min. The nuclei were labelled with Hoechst33342 and the fluorescences of both channels (CellROX® Deep Red and DAPI) were read on the GloMax plate fluorometer (Promega Italy). The fluorescence signals relating to the ROS were normalized for the signal of Hoechst33342 to cancel the variability in the fluorescence signal read due to the number of cells present in each well.
The same plates were then also acquired in the confocal microscope for the purpose of obtaining representative images relating to quantifications of the various treatments.

[8] = 24-hour treatment and stimulation with LPS
[9] = relative to stimulated untreated cells (Ctrl + LPS = 100)

Compound: CC(=O)O[C@H](CC(=O)[O-])C[N+](C)(C)C [Component C]
- levels of ROS [1]: comparable to those of the positive control
- dissolution in complete medium ([2]; RPMI medium with 10% FBS, L-glutamine 2 mM and antibiotics): did not cause problems in dissolution; also recorded: did not cause problems of dissolution
- levels of IL-1β vs stimulated control (IL-1β [3]; [8]): increase
- IL-1β (IL-1β [3]; 24 h treatment at non-cytotoxic concentrations incl. LPS 4 h, Ctrl + LPS 4.84): 4.98 pg/mL
- IL-1β (%) (IL-1β [3]; [9]): 102.91%
- levels of TNFα vs stimulated control (TNFα [4]; [8]): levels lower than the stimulated control
- TNFα (TNFα [4]; 24 h treatment at non-cytotoxic concentrations, LPS 4 h, Ctrl + LPS 424.12): 386.98 pg/mL
- TNFα (%) (TNFα [4]; [9]): 91.24%
- Cellular vitality (%) (THP-1 human monocytes; N-Acetyl-L-carnitine 0.25 mg/ml): 102.221%
- Cellular vitality (%) (THP-1 human monocytes; N-Acetyl-L-carnitine 0.5 mg/ml): 97.615%
- Cellular vitality (%) (THP-1 human monocytes; N-Acetyl-L-carnitine 1 mg/ml): 90.355%
- Cellular vitality (%) (THP-1 human monocytes; N-Acetyl-L-carnitine 2 mg/ml): 91.422%
- Cellular vitality (%) (THP-1 human monocytes; N-Acetyl-L-carnitine 4 mg/ml): 60.848%
- Maximum non-cytotoxic concentration (THP-1 human monocytes; components A, B, C tested individually (lipoic acid, vitamin C, vitamin E acetate together as component B), mortality not greater than 30%): 2 mg/mL
- Non-cytotoxic concentration (THP-1 human monocytes; each component when tested together (A + B + C)): 0.01 mg/mL

Compound: O=C(O)CCCCC1CCSS1 (stereo not drawn) [Lipoic acid, Alpha-lipoic acid]
- Maximum non-cytotoxic concentration (THP-1 human monocytes; human): 0.3750 mg/mL

Compound: COc1cc(/C=C/C(=O)CC(=O)/C=C/c2ccc(O)c(OC)c2)ccc1O [curcumin, (1E,6E)-1,7-bis(4-hydroxy-3-methoxyphenyl)-hepta-1,6-diene-3,5-dione]
- non-cytotoxic concentration found for curcumin (THP-1 cell line): 10 µM

Compound: CC(C)Cc1ccc(C(C)C(=O)O)cc1 (stereo not shown) [ibuprofen]
- release of IL-1β relative to control (IL-1β [5]): did not have any effect
- toxicity on the cells (MTT) (THP-1 cells): did not identify any effect of toxicity
- release of TNFα relative to control (TNFα [6]): did not cause any reduction

Compound: CS(=O)(=O)Nc1ccc([N+](=O)[O-])cc1Oc1ccccc1 [nimesulide]
- release of IL-1β relative to control (IL-1β [5]): effective in reducing the release of IL-1β
- toxicity on the cells (MTT) (THP-1 cells): did not identify any effect of toxicity
- release of TNFα relative to control (TNFα [6]): showed anti-inflammatory action

Compound: Cc1cc2nc3c(=O)[nH]c(=O)nc-3n(C[C@H](O)[C@H](O)[C@H](O)CO)c2cc1C [vitamin B2, riboflavin]
- solubility of individual ingredients ([2]; water vs alcohols or organic solvents): soluble in water but not in alcohols

Compound: tocopherol [vitamin E]
- antioxidant action (ROS levels) [7]: partial antioxidant action
